Results taken from PubChem BioAssay (NCI).
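Each compound was tested at five concentrations against cells in 96-well plates for 48 hours. TGI denotes the concentration required for complete inhibition of growth.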

How the values were obtained:
Assay in all cases: DTP human tumour cell line panel, 48 h
HCT-116 colon = tested on: HCT-116 colon
NCI-H460 lung = tested on: NCI-H460 lung
UACC-257 melanoma = tested on: UACC-257 melanoma
UO-31 renal = tested on: UO-31 renal
HOP-62 NSCLC = tested on: HOP-62 NSCLC
UACC-62 melanoma = tested on: UACC-62 melanoma
CAKI-1 renal = tested on: CAKI-1 renal
SK-MEL-28 melanoma = tested on: SK-MEL-28 melanoma
NCI-H226 lung = tested on: NCI-H226 lung
SF-539 CNS = tested on: SF-539 CNS
SF-268 CNS = tested on: SF-268 CNS
SW-620 colon = tested on: SW-620 colon
NCI-H23 lung = tested on: NCI-H23 lung
DU-145 prostate = tested on: DU-145 prostate
IGROV1 ovarian = tested on: IGROV1 ovarian
HCT-15 colon = tested on: HCT-15 colon
NCI/ADR-RES ovarian = tested on: NCI/ADR-RES ovarian
CCRF-CEM leukemia = tested on: CCRF-CEM leukemia
OVCAR-5 ovarian = tested on: OVCAR-5 ovarian
BT-549 breast = tested on: BT-549 breast

Measured: TGI

Cc1cccc(C(O)c2ccccn2)c1O (stereo not given)
> 100 µM: all assays above

CN(C)C(=S)SCc1ccccc1
> 100 µM: all assays above
